From publication PMC9467586, “Development of novel 9-O-substituted-13-octylberberine derivatives as potential anti-hepatocellular carcinoma agents” (Journal of Enzyme Inhibition and Medicinal Chemistry, 2022)

How the values were obtained:
[1] = tested on: p-cdc25c, cdc2 and cyclin B1; experiment: Western blot of G2/M-related proteins; assay type: cell-based, human; conditions: HepG2, 72 h, concentration-dependent
Experimental: HepG2 cells were incubated with different doses of 6k for 72 h. Cells were collected, centrifuged, and washed two times with ice-cold PBS. The pellet was then re-suspended in lysis buffer. After the cells were lysed on ice for 20 min, lysates were centrifuged at 13000 g at 4 °C for 15 min. The protein concentration in the supernatant was determined using the BCA protein assay reagents. Equal amounts of protein (20 μg) were resolved using sodium dodecyl sulfate-polyacrylamide gel electrophoresis (SDS-PAGE) (10–12% acrylamide gels) and transferred to PVDF membrane. Membranes were blocked for 1 h at room temperature. Membranes were then incubated with primary antibodies against p-cdc25c, cdc2, cyclin B1, Bax, Bcl-2, cytochrome C, caspase-3, VDAC1 and β-actin, the membrane being gently rotated overnight at 4 °C. The bound antibodies were detected using horseradish peroxidase (HRP)-conjugated second antibodies and visualised by the enhanced chemiluminescent reagent.

[2] = Aqueous solubility measurement by HPLC; assay type: physicochemical; conditions: 25 °C, pH 7.4, aqueous buffer, thermodynamic from solid
Experimental: Berberine, 3c and 6k (5 mg) were dissolved in 1 ml PBS (50 mM, pH 7.4) at 25 °C. The suspension was sonicated for 30 min and then centrifuged at 15000 g for 5 min. The supernatant was filtered through a PTFE filter (0.2 μm) slowly. Then 10 μL filtered solution was injected into the HPLC system (Shimadzu DGU-20A3R) on a Shimadzu-GL WondaSil C18-WR column and quantified using the standard curves made by the corresponding known concentrations of berberine, 3c and 6k. The eluent was methanol/water (65/35, v/v) at a flow rate of 1.0 ml/min with the detection wavelength at 254 nm.

[3] = tested on: H22 liver cancer xenograft; experiment: In vivo anti-HCC assay, H22 liver cancer xenograft mouse model; parameters: species or system mice; conditions: intravenous; for tumour inhibitory rate (TIR, w/w): once a day for 21 days, H22 mice
Experimental: Five-week-old male Institute of Cancer Research (ICR) mice were purchased from Shanghai SLAC Laboratory Animals Co. Ltd. Briefly, a total of 1 × 10^6 H22 cells were subcutaneously inoculated into the right flank of ICR mice according to protocols of tumour transplant research, to initiate tumour growth. After incubation for one day, mice were weighed and randomly divided into 5 groups of 8 animals. The groups were administered berberine (30 mg/kg) and 6k (15 or 30 mg/kg) in a vehicle of 10% DMF/2% Tween 80/88% saline, respectively. Vehicle and cyclophosphamide (20 mg/kg) were employed as negative and positive controls, respectively. Treatments were performed by intravenous injection once per day for a total of 21 consecutive days. Body weights and tumour volumes were measured every 2 days. The mice were sacrificed after the treatments, and the tumours were excised and weighed. The tumour volume and inhibition rate (w/w) were calculated as follows: tumour volume = L × W^2/2, where L is the length and W is the width; tumour inhibitory ratio (%) = (1-average tumour weight of treated group/average tumour weight of control group) × 100%. All procedures were performed following institutional approval in accordance with the NIH Guide for the Care and Use of Laboratory Animals.

[4] = tested on: human hepatoma cells including HepG2, Sk-Hep-1 and Huh-7 cells; experiment: Antiproliferative MTT assay, summary over human hepatoma cells; assay type: cell-based; conditions: read-out: IC50 values against human hepatoma cells (span over cell lines)
Experimental: HepG2, Sk-Hep-1, Huh-7, Hep3B and L-02 cells were purchased from Nanjing Key Gen Biotech Co. Ltd. (Nanjing, China). The cytotoxicity of test compounds was determined using an MTT assay. Briefly, the cell lines were incubated at 37 °C in a humidified 5% CO2 incubator for 24 h in 96-microwell plates. After medium removal, 100 μL of culture medium with 0.1% DMSO containing test compounds at different concentrations was added to each well and incubated at 37 °C for another 72 h. The MTT (5 mg/mL in PBS) was added and incubated for another 4 h, the optical density was detected with a microplate reader at 490 nm. The IC50 values were calculated according to the dose-dependent curves. All the experiments were repeated in at least three independent experiments.

CCCCCCCCc1c2[n+](cc3c(OCCCCCCCCN4CCN(C)CC4)c(OC)ccc13)CCc1cc3c(cc1-2)OCO3.[Br-] [Compound 6k, 10-Methoxy-9-((8–(4-methylpiperazin-1-yl)octyl)oxy)-13-octyl-5,6-dihydro-[1,3]dioxolo[4,5-g]isoquinolino[3,2-a]isoquinolin-7-ium bromide]
cdc2 [1]: inhibited cdc2 kinase activation | cdc25c phosphorylation (p-cdc25c) [1]: significantly promoted cdc25c phosphorylation | cyclin B1 [1]: reduced cyclin B1 binding | solubility at 30 min [2]: 1080 µg/mL | tumour inhibitory rate (TIR, w/w) ([3]; 15 mg/kg): 50.4% | tumour inhibitory rate (TIR, w/w) ([3]; 30 mg/kg): 61.1% | mice body weights during treatment ([3]; 15 or 30 mg/kg, 21 days): didn’t cause significant loss in mice body weights | IC50 [4]: 620 to 1690 nM
